Reference: patent US20240060999A1, “BLOOD COAGULATION INSPECTION METHOD” (FUJIMORI KOGYO CO., LTD, priority 2020, published 2024)

How the values were obtained:
whole blood [1] = assay: ROTEM whole blood coagulation with dialyzed Dade Innovin (recombinant tissue factor) 0.569 μg/mL + Ca 12 mM + CTI 20 μg/mL + PKSI-527 40 μM; format: cell-based; conditions: Ex28; for CT (clotting time): Innovin 0.569 μg/mL+Ca+CTI+PKSI-527, ARIXTRA 0.5 ug/mL
Experimental: ROTEM was used to analyze blood coagulation.
Blood was collected using a blood collection tube containing 3.2% sodium citrate manufactured by Terumo Corporation.
Blood coagulation was analyzed in the case of having added 4% (final concentration 0.569 μg/mL) of Dade Innovin (recombinant tissue factor: Sysmex Corporation) having being diluted by 50 times after dialysis, calcium chloride (Ca; final concentration 12 mM), heparan sulfate (final concentration 0 or 2 μg/mL), CTI (final concentration 20 μg/mL), PKSI-527 (final concentration 40 μM) without and with a soluble thrombomodulin (rTM: final concentration 30 nM) further having been added, as well as with an APC inhibitory aptamer (HS02-44G; final concentration 1 μM) in addition to 30 nM of soluble thrombomodulin.
Blood coagulation was analyzed in the case of having added 4% (final concentration 0.569 μg/mL) of 50-fold diluted Dade Innovin (recombinant tissue factor: Sysmex Corporation) after dialysis, calcium chloride (Ca; final concentration 12 mM), low molecular weight heparan (trade name FRAGMIN; Pfizer) (final concentration 0 or 0.2 U/mL), CTI (final concentration 20 μg/mL), and PKSI-527 (final concentration 40 μM) with and without a soluble thrombomodulin (rTM; final concentration 30 nM) further having been added, as well as with an APC inhibitory aptamer (HS02-44G; final concentration 1 μM) in addition to 30 nM soluble thrombomodulin.
ROTEM was used to analyze coagulation.
Blood coagulation was analyzed in the case of having added 4% (final concentration 0.569 μg/mL) of 50-fold diluted Dade Innovin (recombinant tissue factor: Sysmex Corporation) after dialysis, calcium chloride (Ca; final concentration 12 mM), ARIXTRA (final concentration 0 or […]), CTI (final concentration 20 μg/mL), and PKSI-527 (final concentration 40 μM), without and with thrombomodulin (rTM; final concentration 30 nM) further having been added, as well as with an APC inhibitory aptamer (HS02-44G; final concentration 1 μM) in addition to soluble thrombomodulin 30 nM.

whole blood [2] = assay: ROTEM whole blood coagulation with rabbit brain-derived tissue thromboplastin (TP) + Ca 12 mM (CTI 20 μg/mL, PKSI-527 40 μM where stated); format: cell-based; conditions: for prolongation of blood coagulation by addition of rTM: Ex5-8, TP 0.9 μg/mL+Startem, FRAGMIN 0.2 U/mL or ARIXTRA 0.5 μg/mL instead of heparan sulfate, rTM 20 or 30 nM
[3] = unfractionated heparin 0.1 U/mL
[4] = Ex20, TP 16.6 μg/mL+Ca+CTI+PKSI-527, ARIXTRA 0.5 μg/mL, no rTM
[5] = Ex20, TP 16.6 μg/mL+Ca+CTI+PKSI-527, ARIXTRA 0.5 μg/mL, rTM 100 nM
[6] = Ex20, TP 16.6 μg/mL+Ca+CTI+PKSI-527, ARIXTRA 2.0 μg/mL, no rTM
[7] = Ex20, TP 16.6 μg/mL+Ca+CTI+PKSI-527, ARIXTRA 2.0 μg/mL, rTM 100 nM
[8] = Ex20, TP 16.6 μg/mL+Ca+CTI+PKSI-527, ARIXTRA 3.0 μg/mL, no rTM
[9] = Ex20, TP 16.6 μg/mL+Ca+CTI+PKSI-527, ARIXTRA 3.0 μg/mL, rTM 100 nM
[10] = Ex20, TP 16.6 μg/mL+Ca+CTI+PKSI-527, ARIXTRA 4.0 μg/mL, no rTM
[11] = Ex20, TP 16.6 μg/mL+Ca+CTI+PKSI-527, ARIXTRA 4.0 μg/mL, rTM 100 nM
[12] = Ex20, TP 16.6 μg/mL+Ca+CTI+PKSI-527, ARIXTRA 5.0 μg/mL, no rTM
[13] = Ex20, TP 16.6 μg/mL+Ca+CTI+PKSI-527, ARIXTRA 5.0 μg/mL, rTM 100 nM
[14] = Ex21, TP 0.64 μg/mL+Ca+CTI+PKSI-527, ARIXTRA 0.5 μg/mL, no rTM
[15] = Ex21, TP 0.64 μg/mL+Ca+CTI+PKSI-527, ARIXTRA 0.5 μg/mL, rTM 30 nM
[16] = Ex22, TP 0.055 μg/mL+Ca+CTI+PKSI-527, ARIXTRA 0.05 μg/mL, no rTM
[17] = Ex22, TP 0.055 μg/mL+Ca+CTI+PKSI-527, ARIXTRA 0.05 μg/mL, rTM 20 nM
[18] = Ex22, TP 0.055 μg/mL+Ca+CTI+PKSI-527, ARIXTRA 0.20 μg/mL, no rTM
[19] = Ex22, TP 0.055 μg/mL+Ca+CTI+PKSI-527, ARIXTRA 0.20 μg/mL, rTM 20 nM
[20] = Ex19, TP 16.6 μg/mL+Ca+CTI+PKSI-527, unfractionated heparin 0.1 U/mL, no rTM
[21] = Ex19, TP 16.6 μg/mL+Ca+CTI+PKSI-527, unfractionated heparin 0.1 U/mL, rTM 100 nM
[22] = Ex19, TP 16.6 μg/mL+Ca+CTI+PKSI-527, unfractionated heparin 0.2 U/mL, no rTM
[23] = Ex19, TP 16.6 μg/mL+Ca+CTI+PKSI-527, unfractionated heparin 0.2 U/mL, rTM 100 nM
[24] = Ex19, TP 16.6 μg/mL+Ca+CTI+PKSI-527, unfractionated heparin 0.3 U/mL, no rTM
[25] = Ex19, TP 16.6 μg/mL+Ca+CTI+PKSI-527, unfractionated heparin 0.3 U/mL, rTM 100 nM

CO[C@H]1O[C@H](COS(=O)(=O)O)[C@@H](O[C@@H]2O[C@@H](C(=O)O)[C@@H](O[C@H]3O[C@H](COS(=O)(=O)O)[C@@H](O[C@@H]4O[C@H](C(=O)O)[C@@H](O[C@H]5O[C@H](COS(=O)(=O)O)[C@@H](O)[C@H](O)[C@H]5NS(=O)(=O)O)[C@H](O)[C@H]4O)[C@H](OS(=O)(=O)O)[C@H]3NS(=O)(=O)O)[C@H](O)[C@H]2OS(=O)(=O)O)[C@H](O)[C@H]1NS(=O)(=O)O [ARIXTRA, fondaparinux sodium]
CT (clotting time) (whole blood [1]; no rTM): 466 s
CT (clotting time) (whole blood [1]; rTM 30 nM): 996 s
CT (clotting time) (whole blood [1]; rTM 30 nM+APC inhibitory aptamer 1 μM): 474 s
anticoagulation ability of the soluble thrombomodulin (whole blood [1]; addition of ARIXTRA 0.5 μg/mL, rTM 30 nM): markedly enhanced
prolongation of blood coagulation by addition of rTM (whole blood [2]; [3]): markedly prolonged
CT values (whole blood [2]; Ex20, TP 16.6 μg/mL+Ca+CTI+PKSI-527, ARIXTRA 0, 0.5 μg/mL, no rTM): < 1 min
CFT (clot formation time) (whole blood [2]; [4]): 86 s
CT (clotting time) (whole blood [2]; [4]): 52 s
CFT (clot formation time) (whole blood [2]; [5]): 69 s
CT (clotting time) (whole blood [2]; [5]): 68 s
CFT (clot formation time) (whole blood [2]; [6]): 64.0 s
CT (clotting time) (whole blood [2]; [6]): 64 s
CFT (clot formation time) (whole blood [2]; [7]): 61 s
CT (clotting time) (whole blood [2]; [7]): 96 s
CFT (clot formation time) (whole blood [2]; [8]): 78.0 s
CT (clotting time) (whole blood [2]; [8]): 72 s
CFT (clot formation time) (whole blood [2]; [9]): 68 s
CT (clotting time) (whole blood [2]; [9]): 112 s
CFT (clot formation time) (whole blood [2]; [10]): 70.0 s
CT (clotting time) (whole blood [2]; [10]): 75 s
CFT (clot formation time) (whole blood [2]; [11]): 77 s
CT (clotting time) (whole blood [2]; [11]): 118 s
CFT (clot formation time) (whole blood [2]; [12]): 77.0 s
CT (clotting time) (whole blood [2]; [12]): 78 s
CFT (clot formation time) (whole blood [2]; [13]): 105 s
CT (clotting time) (whole blood [2]; [13]): 114 s
CFT (clot formation time) (whole blood [2]; [14]): 74 s
CT (clotting time) (whole blood [2]; [14]): 294 s
CFT (clot formation time) (whole blood [2]; [15]): 794 s
CT (clotting time) (whole blood [2]; [15]): 581 s
CFT (clot formation time) (whole blood [2]; [16]): 145 s
CT (clotting time) (whole blood [2]; [16]): 619 s
CFT (clot formation time) (whole blood [2]; [17]): 403 s
CT (clotting time) (whole blood [2]; [17]): 1074 s
CFT (clot formation time) (whole blood [2]; [18]): 232 s
CT (clotting time) (whole blood [2]; [18]): 799 s
blood clotting time (whole blood [2]; Ex22, TP 0.055 μg/mL+Ca+CTI+PKSI-527, ARIXTRA 0.2 μg/mL, rTM 20 nM): ≥ 1 h
CFT (clot formation time) (whole blood [2]; [19]): No CFT
CT (clotting time) (whole blood [2]; [19]): No CT

Unfractionated heparin
prolongation of blood coagulation by addition of rTM (whole blood [2]; [3]): markedly prolonged
CFT (clot formation time) (whole blood [2]; [20]): 98 s
CT (clotting time) (whole blood [2]; [20]): 53 s
CFT (clot formation time) (whole blood [2]; [21]): 93 s
CT (clotting time) (whole blood [2]; [21]): 66 s
CFT (clot formation time) (whole blood [2]; [22]): 82.0 s
CT (clotting time) (whole blood [2]; [22]): 73 s
CFT (clot formation time) (whole blood [2]; [23]): 102 s
CT (clotting time) (whole blood [2]; [23]): 89 s
CFT (clot formation time) (whole blood [2]; [24]): 86.0 s
CT (clotting time) (whole blood [2]; [24]): 69 s
CFT (clot formation time) (whole blood [2]; [25]): 161 s
CT (clotting time) (whole blood [2]; [25]): 182 s
